# Key:
# GALAP (Galium) = assay: Postemergence herbicidal evaluation; format: in vivo, Galium aparine; details: postemergence
# Outline: (§1)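 ~2-wk seedlings; postemergence spray, 40 psi; vehicle 1:1 acetone:water + 0.5% Tween 20; rate ≈0.0156–0.500 kg/ha; greenhouse hold; scored 4–5 wk after treatment, 0–9 scale vs control; repeat tests averaged.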
# [1] = test system: TRZAWR (Wheat, Winter, cv Riband); assay: Postemergence herbicidal evaluation; format: in vivo, Triticum aestivum; details: postemergence
# Outline: as §1
# AMBEL (Ragweed, Common) = assay: Postemergence herbicidal evaluation; format: in vivo, Ambrosia artemisifolia; details: postemergence
# Outline: as §1
# [2] = test system: CHEAL (Lambsquarters, Common); assay: Preemergence herbicidal evaluation; format: in vivo, Chenopodium album; details: rated 4-5 weeks after treatment, rating scale 0-9
# Outline: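 Rating at 4–5 wk post-spray on a 0–9 visual scale vs control. Application: aqueous acetone, ~0.0156–0.500 kg/ha, to soil surface after seeding, preemergence.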
SMILES,herbicidal rating GALAP (GALAP (Galium); rate 0.0156 kg/ha),herbicidal rating GALAP (GALAP (Galium); rate 0.0313 kg/ha),herbicidal rating GALAP (GALAP (Galium); rate 0.0625 kg/ha),herbicidal rating TRZAWR ([1]; rate 0.0156 kg/ha),herbicidal rating TRZAWR ([1]; rate 0.0313 kg/ha),herbicidal rating TRZAWR ([1]; rate 0.0625 kg/ha),"herbicidal rating AMBEL (AMBEL (Ragweed, Common); rate 0.0156 kg/ha)","herbicidal rating AMBEL (AMBEL (Ragweed, Common); rate 0.0313 kg/ha)","herbicidal rating AMBEL (AMBEL (Ragweed, Common); rate 0.0625 kg/ha)",Preemergence herbicidal rating CHEAL ([2]; rate 0.0156 kg/ha),Preemergence herbicidal rating CHEAL ([2]; rate 0.0313 kg/ha),Preemergence herbicidal rating CHEAL ([2]; rate 0.0625 kg/ha),Preemergence herbicidal rating CHEAL ([2]; rate 0.1250 kg/ha),Preemergence herbicidal rating CHEAL ([2]; rate 0.2500 kg/ha)
"COc1ccc(CN2C(=O)CSC2=Nc2cc(-n3c(=O)cc(C(F)(F)F)n(C)c3=O)c(F)cc2Cl)c(OC)c1 [Compound 139, 3-{4-Chloro-5-{[3-(2,4-dimethoxybenzyl)-4-oxo-2-thiazolidinylidene]amino}-2-fluorophenyl}-1-methyl-6-(trifluoromethyl)-2,4(1H,3H)-pyrimidinedione]",1.0,3.0,4.0,2.5,3.0,3.5,9.0,9.0,7.0,0.0,7.0,9.0,9.0,9.0
"Cc1cccc(CN2C(=O)CSC2=Nc2cc(-n3c(=O)cc(C(F)(F)F)n(C)c3=O)c(F)cc2Cl)c1 [Compound 130, 3-{4-Chloro-2-fluoro-5-{[3-(m-methylbenzyl)-4-oxo-2-thiazolidinylidene]amino}phenyl}-1-methyl-6-(trifluoromethyl)-2,4 (1H, 3H)-pyrimidinedione]",2.0,3.0,5.0,3.5,3.5,4.0,9.0,9.0,9.0,9.0,9.0,9.0,9.0,9.0
"Cn1c(C(F)(F)F)cc(=O)n(-c2cc(N=C3SCC(=O)N3Cc3cccc(C(F)(F)F)c3)c(Cl)cc2F)c1=O [Compound 142, 3-{4-Chloro-2-fluoro-5-{{3-[m-(trifluoromethyl)benzyl]-4-oxo-2-thiazolidinylidene}-amino}phenyl}-1-methyl-6-(trifluoromethyl)-2,4(1H,3H)-pyrimidinedione]",0.0,1.0,1.0,2.5,2.5,2.5,9.0,9.0,9.0,4.0,3.0,9.0,9.0,9.0
"Cn1c(C(F)(F)F)cc(=O)n(-c2cc(N=C3SCC(=O)N3C3CC3)c(Cl)cc2F)c1=O [Compound 152, 3-{4-Chloro-5-[(3-cyclopropyl-4-oxo-2-thiazolidinylidene)amino]-2-fluorophenyl}-1-methyl-6-(trifluoromethyl)-2,4(1H,3H)-pyrimidinedione]",0.0,0.0,2.0,3.0,3.5,4.0,2.0,4.0,9.0,–,2.0,9.0,9.0,9.0

# — patent US20020137929A1, “1 - (3-heterocyclylphenyl) isothiourea, -isourea, -guanidine and -amidine herbicidal agents” (Intellectual Property Department, BASF Aktiengesellschaft, priority 1998, published 2002)
